Molecules are shown by their SMILES.

Voltage-gated inwardly rectifying potassium channel KCNH2, sequence (Q12809 whole entry): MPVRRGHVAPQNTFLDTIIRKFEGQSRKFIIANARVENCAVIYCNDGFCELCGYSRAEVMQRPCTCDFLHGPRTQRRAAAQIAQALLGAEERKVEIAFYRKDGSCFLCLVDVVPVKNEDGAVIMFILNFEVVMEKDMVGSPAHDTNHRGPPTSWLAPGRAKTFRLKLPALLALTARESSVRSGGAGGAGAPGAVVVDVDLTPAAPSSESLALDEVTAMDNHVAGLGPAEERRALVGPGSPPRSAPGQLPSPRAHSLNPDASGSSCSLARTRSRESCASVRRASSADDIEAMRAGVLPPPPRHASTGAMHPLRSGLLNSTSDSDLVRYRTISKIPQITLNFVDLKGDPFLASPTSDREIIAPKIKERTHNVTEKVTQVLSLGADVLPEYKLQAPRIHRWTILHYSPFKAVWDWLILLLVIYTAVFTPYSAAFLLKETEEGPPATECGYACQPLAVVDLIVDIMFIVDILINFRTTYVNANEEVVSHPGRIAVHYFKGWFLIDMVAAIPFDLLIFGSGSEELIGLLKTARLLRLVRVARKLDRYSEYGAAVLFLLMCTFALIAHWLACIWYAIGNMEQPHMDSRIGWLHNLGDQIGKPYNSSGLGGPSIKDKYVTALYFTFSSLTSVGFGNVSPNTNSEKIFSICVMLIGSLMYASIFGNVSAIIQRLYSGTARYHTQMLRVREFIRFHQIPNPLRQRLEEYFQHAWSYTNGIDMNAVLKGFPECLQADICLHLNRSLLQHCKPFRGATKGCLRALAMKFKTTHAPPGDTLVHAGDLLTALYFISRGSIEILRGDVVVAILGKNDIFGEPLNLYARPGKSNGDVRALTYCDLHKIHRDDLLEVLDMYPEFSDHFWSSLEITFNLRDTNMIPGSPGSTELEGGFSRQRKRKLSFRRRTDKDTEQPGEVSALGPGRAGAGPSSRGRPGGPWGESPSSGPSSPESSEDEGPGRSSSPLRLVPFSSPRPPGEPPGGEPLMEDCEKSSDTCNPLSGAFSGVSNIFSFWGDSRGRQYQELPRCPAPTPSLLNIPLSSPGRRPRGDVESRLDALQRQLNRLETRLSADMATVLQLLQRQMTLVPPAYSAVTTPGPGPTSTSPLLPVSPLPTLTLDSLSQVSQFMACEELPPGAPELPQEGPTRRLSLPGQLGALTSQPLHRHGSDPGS

Test system in one series: not listed separately
The series is described as follows: DRUGMATRIX: Sigma2 radioligand binding (ligand: [3H] Ifenprodil). The format is cell membranes, Rattus norvegicus, Wistar, Brain, Membrane. To be noted: Not Active = under 50% inhibition at 10 µM.
`COc1ccc2cc(CCC(C)=O)ccc2c1` [NABUMETONE]: the IC50 entry is “Not Active” and the Ki entry is “Not Active”.

For `O=C(O)c1cccnc1` [NIACIN], the IC50 result is “Not Active” and the Ki result was “Not Active”.

As to `CNC(=C[N+](=O)[O-])NCCSCc1csc(CN(C)C)n1` [NIZATIDINE], the IC50 result is listed as “Not Active” and the Ki entry is reported as “Not Active”.

On to `C[C@]12C/C(=C/O)C(=O)C[C@@H]1CC[C@@H]1[C@@H]2CC[C@@]2(C)[C@H]1CC[C@]2(C)O` [OXYMETHOLONE], for which the IC50 entry was “Not Active” and the Ki entry is given as “Not Active”.

Regarding `CC(C)(CO)C(O)C(=O)NCCCO` (stereo not given) [PANTHENOL], the IC50 result is “Not Active” and the Ki result is “Not Active”.

As to `COc1ccc(Cc2nccc3cc(OC)c(OC)cc23)cc1OC` [PAPAVERINE], the IC50 entry is “Not Active” and the Ki entry is “Not Active”.

Regarding `CCCCC1C(=O)N(c2ccccc2)N(c2ccccc2)C1=O` [PHENYLBUTAZONE], the IC50 result is “Not Active” and the Ki result is listed as “Not Active”.

As to `Cc1cccc(Nc2cc(Cl)nc(SCC(=O)O)n2)c1C` [PIRINIXIC ACID], the IC50 entry was “Not Active” and the Ki result is “Not Active”.

Turning to `CC[C@H](C)C(=O)O[C@H]1C[C@H](O)C=C2C=C[C@H](C)[C@H](CC[C@@H](O)C[C@@H](O)CC(=O)O)[C@H]21` [PRAVASTATIN], the IC50 result is recorded as “Not Active” and the Ki entry is reported as “Not Active”.

With `CC(C)(Sc1cc(C(C)(C)C)c(O)c(C(C)(C)C)c1)Sc1cc(C(C)(C)C)c(O)c(C(C)(C)C)c1` [PROBUCOL], the IC50 result is reported as “Not Active” and the Ki entry is on record as “Not Active”.

In another series the target is C-C chemokine receptor type 2 (Homo sapiens, UniProt P41597). The format is cell membranes, CHO-K1, Membrane. To be noted: cho-k1. Note: in other assays of this panel Not Active means under 50% inhibition at 10 µM.
C-C chemokine receptor type 2, sequence (P41597 whole entry): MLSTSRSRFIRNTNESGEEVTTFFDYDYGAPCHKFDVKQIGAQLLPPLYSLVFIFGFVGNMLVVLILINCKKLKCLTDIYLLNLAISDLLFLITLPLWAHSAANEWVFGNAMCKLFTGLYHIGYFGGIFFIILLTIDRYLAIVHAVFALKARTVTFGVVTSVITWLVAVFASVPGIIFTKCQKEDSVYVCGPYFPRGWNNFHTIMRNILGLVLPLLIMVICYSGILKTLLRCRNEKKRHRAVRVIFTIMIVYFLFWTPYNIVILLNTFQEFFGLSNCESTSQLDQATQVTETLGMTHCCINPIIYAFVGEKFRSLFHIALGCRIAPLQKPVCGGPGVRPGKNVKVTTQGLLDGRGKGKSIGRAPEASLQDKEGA
In the case of `COc1ccc2cc(CCC(C)=O)ccc2c1` [NABUMETONE], the IC50 result was “Not Active”.

Regarding `O=C(O)c1cccnc1` [NIACIN], the IC50 entry is “Not Active”.

As to `CNC(=C[N+](=O)[O-])NCCSCc1csc(CN(C)C)n1` [NIZATIDINE], the IC50 result is given as “Not Active”.

`C[C@]12C/C(=C/O)C(=O)C[C@@H]1CC[C@@H]1[C@@H]2CC[C@@]2(C)[C@H]1CC[C@]2(C)O` [OXYMETHOLONE]: the IC50 entry is given as “Not Active”.

With `CC(C)(CO)C(O)C(=O)NCCCO` (stereo not given) [PANTHENOL], the IC50 result is given as “Not Active”.

For `COc1ccc(Cc2nccc3cc(OC)c(OC)cc23)cc1OC` [PAPAVERINE], the IC50 entry is reported as “Not Active”.

As for `CCCCC1C(=O)N(c2ccccc2)N(c2ccccc2)C1=O` [PHENYLBUTAZONE], the IC50 entry is “Not Active”.

In the case of `Cc1cccc(Nc2cc(Cl)nc(SCC(=O)O)n2)c1C` [PIRINIXIC ACID], the IC50 entry is “Not Active”.

Consider `CC[C@H](C)C(=O)O[C@H]1C[C@H](O)C=C2C=C[C@H](C)[C@H](CC[C@@H](O)C[C@@H](O)CC(=O)O)[C@H]21` [PRAVASTATIN], for which the IC50 entry is given as “Not Active”.

With `CC(C)(Sc1cc(C(C)(C)C)c(O)c(C(C)(C)C)c1)Sc1cc(C(C)(C)C)c(O)c(C(C)(C)C)c1` [PROBUCOL], the IC50 result is recorded as “Not Active”.

Test system in a further series: not listed separately
The series is described as follows: DRUGMATRIX: Imidazoline I2, Central radioligand binding (ligand: [3H] Idazoxan). The format is cell membranes, Rattus norvegicus, Wistar, Cerebral cortex, Membrane. To be noted: Not Active = under 50% inhibition at 10 µM.
On to `COc1ccc2cc(CCC(C)=O)ccc2c1` [NABUMETONE], for which the IC50 entry was “Not Active” and the Ki result is “Not Active”.

On to `O=C(O)c1cccnc1` [NIACIN], for which the IC50 result was “Not Active” and the Ki entry is reported as “Not Active”.

For the compound `CNC(=C[N+](=O)[O-])NCCSCc1csc(CN(C)C)n1` [NIZATIDINE], the IC50 result is recorded as “Not Active” and the Ki result is on record as “Not Active”.

Consider `C[C@]12C/C(=C/O)C(=O)C[C@@H]1CC[C@@H]1[C@@H]2CC[C@@]2(C)[C@H]1CC[C@]2(C)O` [OXYMETHOLONE], for which the IC50 entry is “Not Active” and the Ki result is reported as “Not Active”.

Take `CC(C)(CO)C(O)C(=O)NCCCO` (stereo not given) [PANTHENOL]: the IC50 entry is recorded as “Not Active” and the Ki result was “Not Active”.

As to `COc1ccc(Cc2nccc3cc(OC)c(OC)cc23)cc1OC` [PAPAVERINE], the IC50 entry is “Not Active” and the Ki entry is “Not Active”.

Consider `CCCCC1C(=O)N(c2ccccc2)N(c2ccccc2)C1=O` [PHENYLBUTAZONE], for which the IC50 entry is reported as “Not Active” and the Ki entry is given as “Not Active”.

On to `Cc1cccc(Nc2cc(Cl)nc(SCC(=O)O)n2)c1C` [PIRINIXIC ACID], for which the IC50 result was “Not Active” and the Ki result was “Not Active”.

For the compound `CC[C@H](C)C(=O)O[C@H]1C[C@H](O)C=C2C=C[C@H](C)[C@H](CC[C@@H](O)C[C@@H](O)CC(=O)O)[C@H]21` [PRAVASTATIN], the IC50 entry is recorded as “Not Active” and the Ki entry is “Not Active”.

For `CC(C)(Sc1cc(C(C)(C)C)c(O)c(C(C)(C)C)c1)Sc1cc(C(C)(C)C)c(O)c(C(C)(C)C)c1` [PROBUCOL], the IC50 result is given as “Not Active” and the Ki entry was “Not Active”.

Another series deals with T1, Progesterone receptor (Bos taurus, UniProt Q690N0).
T1 sequence (Q690N0 whole entry): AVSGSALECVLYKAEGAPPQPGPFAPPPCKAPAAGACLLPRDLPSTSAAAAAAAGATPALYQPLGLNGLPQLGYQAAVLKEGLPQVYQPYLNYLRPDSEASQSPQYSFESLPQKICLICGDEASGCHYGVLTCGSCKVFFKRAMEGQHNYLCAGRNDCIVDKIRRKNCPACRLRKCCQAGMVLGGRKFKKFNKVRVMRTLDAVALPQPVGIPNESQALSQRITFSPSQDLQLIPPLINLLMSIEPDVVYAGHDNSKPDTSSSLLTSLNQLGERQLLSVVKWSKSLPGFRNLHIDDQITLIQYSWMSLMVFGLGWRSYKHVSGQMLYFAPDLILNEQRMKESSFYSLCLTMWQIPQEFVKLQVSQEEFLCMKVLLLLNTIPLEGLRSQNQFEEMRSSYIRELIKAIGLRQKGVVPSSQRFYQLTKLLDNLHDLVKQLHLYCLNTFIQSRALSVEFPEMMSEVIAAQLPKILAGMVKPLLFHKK
The series is described as follows: DRUGMATRIX: Progesterone radioligand binding (ligand: [3H] R-5020). It counts as tissue-based, Uterus. To be noted: Not Active = under 50% inhibition at 10 µM.
Turning to `COc1ccc2cc(CCC(C)=O)ccc2c1` [NABUMETONE], the IC50 result is given as “Not Active”.

For `O=C(O)c1cccnc1` [NIACIN], the IC50 result is “Not Active”.

For `CNC(=C[N+](=O)[O-])NCCSCc1csc(CN(C)C)n1` [NIZATIDINE], the IC50 entry is reported as “Not Active”.

Turning to `C[C@]12C/C(=C/O)C(=O)C[C@@H]1CC[C@@H]1[C@@H]2CC[C@@]2(C)[C@H]1CC[C@]2(C)O` [OXYMETHOLONE], the IC50 result was “Not Active”.

Consider `CC(C)(CO)C(O)C(=O)NCCCO` (stereo not given) [PANTHENOL], for which the IC50 result is “Not Active”.

As for `COc1ccc(Cc2nccc3cc(OC)c(OC)cc23)cc1OC` [PAPAVERINE], the IC50 entry is reported as “Not Active”.

In the case of `CCCCC1C(=O)N(c2ccccc2)N(c2ccccc2)C1=O` [PHENYLBUTAZONE], the IC50 result was “Not Active”.

On to `Cc1cccc(Nc2cc(Cl)nc(SCC(=O)O)n2)c1C` [PIRINIXIC ACID], for which the IC50 result was “Not Active”.

Turning to `CC[C@H](C)C(=O)O[C@H]1C[C@H](O)C=C2C=C[C@H](C)[C@H](CC[C@@H](O)C[C@@H](O)CC(=O)O)[C@H]21` [PRAVASTATIN], the IC50 result is reported as “Not Active”.

For `CC(C)(Sc1cc(C(C)(C)C)c(O)c(C(C)(C)C)c1)Sc1cc(C(C)(C)C)c(O)c(C(C)(C)C)c1` [PROBUCOL], the IC50 result was “Not Active”.

The target of another series is Cytochrome P450 3A4 (Homo sapiens, UniProt P08684). The note with it: bti-tn-5b1-4. Note: in other assays of this panel Not Active means under 50% inhibition at 10 µM.
Cytochrome P450 3A4, sequence (P08684 whole entry): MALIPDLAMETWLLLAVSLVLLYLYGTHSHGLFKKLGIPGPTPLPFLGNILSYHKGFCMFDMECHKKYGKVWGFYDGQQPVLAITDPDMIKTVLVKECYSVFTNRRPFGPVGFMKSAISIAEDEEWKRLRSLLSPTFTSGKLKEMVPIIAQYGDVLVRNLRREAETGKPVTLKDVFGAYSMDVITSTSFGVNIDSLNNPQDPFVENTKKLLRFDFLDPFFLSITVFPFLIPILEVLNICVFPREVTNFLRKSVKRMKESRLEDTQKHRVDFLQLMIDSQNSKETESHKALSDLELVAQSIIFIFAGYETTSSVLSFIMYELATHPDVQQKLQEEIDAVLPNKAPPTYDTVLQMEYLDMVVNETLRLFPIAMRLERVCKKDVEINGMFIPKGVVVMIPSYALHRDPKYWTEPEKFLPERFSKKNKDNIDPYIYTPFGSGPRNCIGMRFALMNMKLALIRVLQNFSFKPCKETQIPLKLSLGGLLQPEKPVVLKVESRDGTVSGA
Consider `COc1ccc2cc(CCC(C)=O)ccc2c1` [NABUMETONE], for which the IC50 result is “Not Active” and the Ki entry was “Not Active”.

`O=C(O)c1cccnc1` [NIACIN]: the IC50 result is given as “Not Active” and the Ki entry is reported as “Not Active”.

`CNC(=C[N+](=O)[O-])NCCSCc1csc(CN(C)C)n1` [NIZATIDINE]: the IC50 entry was “Not Active” and the Ki entry was “Not Active”.

Consider `C[C@]12C/C(=C/O)C(=O)C[C@@H]1CC[C@@H]1[C@@H]2CC[C@@]2(C)[C@H]1CC[C@]2(C)O` [OXYMETHOLONE], for which the IC50 entry is “Not Active” and the Ki result is reported as “Not Active”.

With `CC(C)(CO)C(O)C(=O)NCCCO` (stereo not given) [PANTHENOL], the IC50 result is “Not Active” and the Ki entry is listed as “Not Active”.

For the compound `COc1ccc(Cc2nccc3cc(OC)c(OC)cc23)cc1OC` [PAPAVERINE], the IC50 entry is “Not Active” and the Ki entry is on record as “Not Active”.

Consider `CCCCC1C(=O)N(c2ccccc2)N(c2ccccc2)C1=O` [PHENYLBUTAZONE], for which the IC50 result was “Not Active” and the Ki result was “Not Active”.

Turning to `Cc1cccc(Nc2cc(Cl)nc(SCC(=O)O)n2)c1C` [PIRINIXIC ACID], the IC50 result is on record as “Not Active” and the Ki result was “Not Active”.

In the case of `CC[C@H](C)C(=O)O[C@H]1C[C@H](O)C=C2C=C[C@H](C)[C@H](CC[C@@H](O)C[C@@H](O)CC(=O)O)[C@H]21` [PRAVASTATIN], the IC50 entry is reported as “Not Active” and the Ki entry is reported as “Not Active”.

Consider `CC(C)(Sc1cc(C(C)(C)C)c(O)c(C(C)(C)C)c1)Sc1cc(C(C)(C)C)c(O)c(C(C)(C)C)c1` [PROBUCOL], for which the IC50 entry is recorded as “Not Active” and the Ki result is “Not Active”.

The next series concerns the target Voltage-gated inwardly rectifying potassium channel KCNH2 (Homo sapiens, UniProt Q12809). To be noted: hek293. Note: in other assays of this panel Not Active means under 50% inhibition at 10 µM.
`COc1ccc2cc(CCC(C)=O)ccc2c1` [NABUMETONE]: the IC50 result is reported as “Not Active” and the Ki entry is “Not Active”.

Take `O=C(O)c1cccnc1` [NIACIN]: the IC50 result is on record as “Not Active” and the Ki entry is recorded as “Not Active”.

Regarding `CNC(=C[N+](=O)[O-])NCCSCc1csc(CN(C)C)n1` [NIZATIDINE], the IC50 result is given as “Not Active” and the Ki entry is given as “Not Active”.

`C[C@]12C/C(=C/O)C(=O)C[C@@H]1CC[C@@H]1[C@@H]2CC[C@@]2(C)[C@H]1CC[C@]2(C)O` [OXYMETHOLONE]: the IC50 result is reported as “Not Active” and the Ki entry is reported as “Not Active”.

Take `CC(C)(CO)C(O)C(=O)NCCCO` (stereo not given) [PANTHENOL]: the IC50 result is reported as “Not Active” and the Ki result is reported as “Not Active”.

In the case of `COc1ccc(Cc2nccc3cc(OC)c(OC)cc23)cc1OC` [PAPAVERINE], the IC50 entry is given as “Not Active” and the Ki result is “Not Active”.

For the compound `CCCCC1C(=O)N(c2ccccc2)N(c2ccccc2)C1=O` [PHENYLBUTAZONE], the IC50 entry is “Not Active” and the Ki entry was “Not Active”.

Consider `Cc1cccc(Nc2cc(Cl)nc(SCC(=O)O)n2)c1C` [PIRINIXIC ACID], for which the IC50 entry is given as “Not Active” and the Ki result is reported as “Not Active”.

`CC[C@H](C)C(=O)O[C@H]1C[C@H](O)C=C2C=C[C@H](C)[C@H](CC[C@@H](O)C[C@@H](O)CC(=O)O)[C@H]21` [PRAVASTATIN]: the IC50 result is “Not Active” and the Ki result is given as “Not Active”.

In the case of `CC(C)(Sc1cc(C(C)(C)C)c(O)c(C(C)(C)C)c1)Sc1cc(C(C)(C)C)c(O)c(C(C)(C)C)c1` [PROBUCOL], the IC50 result is “Not Active” and the Ki entry is “Not Active”.

The values are drawn from ChEMBL document CHEMBL1909046, “DrugMatrix in vitro pharmacology data”.
